According to patent US11629129B2, “Microbiocidal picolinamide derivatives” (SYNGENTA PARTICIPATIONS AG, priority 2018, dated 2023):

What was measured:
[1] = system: Mycosphaerella arachidis (Cercospora arachidicola); assay: Mycosphaerella arachidis (Cercospora arachidicola)/Liquid Culture (Early Leaf Spot); type: cell-based; settings: 200 ppm in the formulation, liquid culture, growth inhibition photometrically 4-5 days after application, compared to untreated control, read-out: disease control
Experimental: (§1) Mycosphaerella arachidis (Cercospora arachidicola)/Liquid Culture (Early Leaf Spot) Conidia of the fungus from cryogenic storage are directly mixed into nutrient broth (PDB potato dextrose broth). After placing a (DMSO) solution of test compound into a microtiter plate (96-well format), the nutrient broth containing the fungal spores is added. The test plates are incubated at 24° C. and the inhibition of growth is determined photometrically 4-5 days after application.

[2] = system: Mycosphaerella graminicola (Septoria tritici); assay: Mycosphaerella graminicola (Septoria tritici)/Liquid Culture (Septoria Blotch); type: cell-based; settings: Zymoseptoria tritici; 200 ppm in the formulation; liquid culture, growth inhibition photometrically 4 to 5 days after application; compared to untreated control; read-out: disease control
Experimental: as §1, with “graminicola (Septoria tritici)/Liquid” for “arachidis (Cercospora arachidicola)/Liquid”, “(Septoria Blotch)” for “(Early Leaf Spot)”, “4 to 5” for “4-5”

[3] = system: Monographella nivalis (Microdochium nivale); assay: Monographella nivalis (Microdochium nivale)/Liquid Culture (Foot Rot Cereals); type: cell-based; settings: 200 ppm in the formulation, liquid culture, growth inhibition photometrically 4-5 days after application, compared to untreated control, read-out: disease control
Experimental: as §1, with “Monographella nivalis (Microdochium nivale)/Liquid” for “Mycosphaerella arachidis (Cercospora arachidicola)/Liquid”, “(Foot Rot Cereals)” for “(Early Leaf Spot)”

[4] = system: Glomerella lagenarium (Colletotrichum lagenarium); assay: Glomerella lagenarium (Colletotrichum lagenarium)/Liquid Culture (Anthracnose); type: cell-based; settings: Colletotrichum orbiculare; 200 ppm in the formulation; liquid culture, growth inhibition photometrically 3 to 4 days after application; compared to untreated control; read-out: disease control
Experimental: as §1, with “Glomerella lagenarium (Colletotrichum lagenarium)/Liquid” for “Mycosphaerella arachidis (Cercospora arachidicola)/Liquid”, “(Anthracnose)” for “(Early Leaf Spot)”, “measured” for “determined”, “3 to 4” for “4-5”

[5] = system: Puccinia recondita f. sp. tritici; assay: Puccinia recondita f. sp. tritici/Wheat/Leaf Disc Preventative (Brown Rust); type: in vivo; settings: foliar, 200 ppm in the formulation, wheat leaf segments cv. Kanzler, inoculated 1 day after application, assessed 7-9 days after application, compared to untreated, read-out: disease control
Experimental: Puccinia recondita f. sp. tritici/Wheat/Leaf Disc Preventative (Brown Rust) Wheat leaf segments cv. Kanzler are placed on agar in multiwell plates (24-well format) and sprayed with the formulated test compound diluted in water. The leaf disks are inoculated with a spore suspension of the fungus 1 day after application. The inoculated leaf segments are incubated at 19° C. and 75% rh under a light regime of 12 h light/12 h darkness in a climate cabinet and the activity of a compound is assessed as percent disease control compared to untreated when an appropriate level of disease damage appears in untreated check leaf segments (7-9 days after application).

[6] = system: Phaeosphaeria nodorum (Septoria nodorum); assay: Phaeosphaeria nodorum (Septoria nodorum)/Wheat/Leaf Disc Preventative (Glume Blotch); type: in vivo; settings: Parastagonospora nodorum, foliar; 200 ppm in the formulation; wheat leaf segments cv. Kanzler, inoculated 2 days after application, assessed 5-7 days after application; compared to untreated; read-out: disease control
Experimental: Phaeosphaeria nodorum (Septoria nodorum)/Wheat/Leaf Disc Preventative (Glume Blotch) Wheat leaf segments cv. Kanzler are placed on agar in a multiwell plate (24-well format) and sprayed with the formulated test compound diluted in water. The leaf disks are inoculated with a spore suspension of the fungus 2 days after application. The inoculated test leaf disks are incubated at 20° C. and 75% rh under a light regime of 12 h light/12 h darkness in a climate cabinet and the activity of a compound is assessed as percent disease control compared to untreated when an appropriate level of disease damage appears in untreated check leaf disks (5-7 days after application).

[7] = system: Botryotinia fuckeliana (Botrvtis cinerea); assay: Botryotinia fuckeliana (Botrvtis cinerea)/Liquid Culture (Gray Mould); type: cell-based; settings: Botrytis cinerea; 200 ppm in the formulation; liquid culture, growth inhibition photometrically 3-4 days after application; compared to untreated control; read-out: disease control
Experimental: as §1, with “Botryotinia fuckeliana (Botrvtis cinerea)/Liquid” for “Mycosphaerella arachidis (Cercospora arachidicola)/Liquid”, “(Gray Mould)” for “(Early Leaf Spot)”, “(Vogels” for “(PDB potato dextrose”, “3-4” for “4-5”

Row | melting point [°C] | SMILES | inhibition of growth at 200 ppm [1] [%] | inhibition of growth at 200 ppm [2] [%] | inhibition of growth at 200 ppm [3] [%] | inhibition of growth at 200 ppm [4] [%] | pest or weed control at 200 ppm [5] [%] | pest or weed control at 200 ppm [6] [%] | inhibition of growth at 200 ppm [7] [%]
1 | 144 to 145 | COc1ccnc(C(=O)N[C@@H](C)C(=O)O[C@@H](C)c2ccc(-c3ccc(Cl)cn3)cc2)c1O [I.aa.001, [(1S)-1-[4-(5-chloro-2-pyridyl)phenyl]ethyl] (2S)-2-[(3-hydroxy-4-methoxy-pyridine-2-carbonyl)amino] propanoate] | ≥ 80 | ≥ 80 | ≥ 80 | ≥ 80 | ≥ 80 | – | –
2 | – | COc1ccnc(C(=O)N[C@@H](C)C(=O)O[C@@H](C)c2ccc(-c3cccc(C)c3C)cc2)c1O [I.m.001, [(1S)-1-[4-(2,3-dimethylphenyl)phenyl]ethyl] (2S)-2-[(3-hydroxy-4-methoxy-pyridine-2-carbonyl)amino] propanoate] | ≥ 80 | ≥ 80 | ≥ 80 | ≥ 80 | ≥ 80 | ≥ 80 | ≥ 80
3 | – | COc1ccnc(C(=O)N[C@@H](C)C(=O)O[C@@H](C)c2ccc(-c3ccc(Cl)cc3C)cc2)c1O [I.n.001, [(1S)-1-[4-(4-chloro-2-methyl-phenyl)phenyl]ethyl] (2S)-2-[(3-hydroxy-4-methoxy-pyridine-2-carbonyl)amino] propanoate] | ≥ 80 | ≥ 80 | ≥ 80 | ≥ 80 | ≥ 80 | ≥ 80 | ≥ 80
4 | – | COc1ccnc(C(=O)N[C@@H](C)C(=O)O[C@@H](C)c2ccc(-c3ccc(Br)cc3)cc2)c1O [I.v.001, [(1S)-1-[4-(4-bromophenyl)phenyl]ethyl] (2S)-2-[(3-hydroxy-4-methoxy-pyridine-2-carbonyl)amino] propanoate] | ≥ 80 | ≥ 80 | ≥ 80 | ≥ 80 | ≥ 80 | ≥ 80 | ≥ 80
